According to patent US20130123481A1, “MODIFIED NUCLEOSIDES, NUCLEOTIDES, AND NUCLEIC ACIDS, AND USES THEREOF” (MODERNA THERAPEUTICS, priority 2011, published 2013):

Tested on: peripheral blood mononuclear cells (PBMC), interferon-alpha (IFN-α)
Assay: not given
Type: cell-based, human
Details: Table 47 naturally occurring; IFN-alpha, background about 70 pg/ml
Description: The supernatant was harvested and stored frozen until analyzed by ELISA to determine the G-CSF protein expression, and the induction of the cytokines interferon-alpha (IFN-α) and tumor necrosis factor alpha (TNF-α).

Compound	Cytokines (G-CSF; PBMC)
Nc1nc(=O)n([C@@H]2O[C@H](CO)[C@@H](O)[C@H]2O)cc1C=O [5-formylcytidine (f^5C)]	+ (“+” means greater than 100 pg/ml IFN-alpha)

Tested on: HeLa cells
Assay: In vitro Screening in HeLa Cells - luciferase (RLU)
Type: cell-based, human
Set-up: key to Protein (Luc; HeLa): the protein production of HeLa is judged by “+,” “+/−” and “−”; the protein production of HeLa is judged by “+,” “+/−” and “−”; the protein production of HeLa is judged by “+,” “+/−” and “−”
Details: Table 47 naturally occurring; *** = production seen in cell free translations
Description: The 2′Fluoro-modified mRNA were then transfected into HeLa cells to assess protein production in a cell context and the same mRNA were also assessed in a cell-free rabbit reticulocyte system. A control of unmodified luciferase (natural luciferase) was used for both transcription experiments, a control of untreated and mock transfected (Lipofectamine 2000 alone) were also analyzed for the HeLa transfection and a control of no RNA was analyzed for the rabbit reticulysates.
For the HeLa transfection experiments, the day before transfection, 20,000 HeLa cells (ATCC no. CCL-2; Manassas, Va.) were harvested by treatment with Trypsin-EDTA solution (LifeTechnologies, Grand Island, N.Y.) and seeded in a total volume of 100 ul EMEM medium (supplemented with 10% FCS and 1× Glutamax) per well in a 96-well cell culture plate (Corning, Manassas, Va.). The cells were grown at […] in 5% CO2 atmosphere overnight. […] Lipofectamine 2000 (LifeTechnologies, Grand Island, N.Y.) was used as transfection reagent and 0.2 ul were diluted in 10 ul final volume of OPTI-MEM. After […] of incubation at room temperature, both solutions were combined and incubated an additional 15 minute at room temperature. Then the 20 ul combined solution was added to the 100 ul cell culture medium containing the HeLa cells and incubated at room temperature. After 18 to 22 hours of incubation cells expressing luciferase were lysed with 100 ul of Passive Lysis Buffer (Promega, Madison, Wis.) according to manufacturer instructions. Aliquots of the lysates were transferred to white opaque polystyrene 96-well plates (Corning, Manassas, Va.) and combined with 100 ul complete luciferase assay solution (Promega, Madison, Wis.). The lysate volumes were adjusted or diluted until no more than 2 mio relative light units (RLU) per well were detected for the strongest signal producing samples and the RLUs for each chemistry tested are shown in Table 42. The plate reader was a BioTek Synergy H1 (BioTek, Winooski, Vt.). The background signal of the plates without reagent was about 200 relative light units per well.
To evaluate using of 2′fluoro-modified mRNA in combination with other modification a series of mRNA were transcribed using either wild-type T7 polymerase (non-fluoro-containing compounds) or using mutant T7 polymerases (fluyoro-containing compounds) as described in Example 86. All modified mRNA were tested by in vitro transfection in HeLa cells.
After 18 to 22 hours of incubation cells expressing luciferase were lysed with 100 ul of Passive Lysis Buffer (Promega, Madison, Wis.) according to manufacturer instructions. Aliquots of the lysates were transferred to white opaque polystyrene 96-well plates (Corning, Manassas, Va.) and combined with 100 ul complete luciferase assay solution (Promega, Madison, Wis.). The lysate volumes were adjusted or diluted until no more than 2 mio relative light units (RLU) per well were detected for the strongest signal producing samples and the RLUs for each chemistry tested are shown in Table 44. The plate reader was a BioTek Synergy H1 (BioTek, Winooski, Vt.). The background signal of the plates without reagent was about 200 relative light units per well.

Compound	Protein (Luc; HeLa)
Nc1nc(=O)n([C@@H]2O[C@H](CO)[C@@H](O)[C@H]2O)cc1C=O [5-formylcytidine (f^5C)]	−***

Biological target: wild-type T7 polymerase (Escherichia phage T7, UniProt P00573)
Assay: In Vitro Transcription with Wild-Type T7 Polymerase (transcription and capping yield)
Details: G-CSF mRNA, wild-type T7 polymerase, OD260
Description: The luciferase and G-CSF modified mRNA were also subjected to an enzymatic capping reaction and each modified mRNA capping reaction was evaluated for yield by spectrophometic measurement (OD260) and correct size assessed using bioanalyzer.

wild-type T7 polymerase, sequence (P00573 whole entry): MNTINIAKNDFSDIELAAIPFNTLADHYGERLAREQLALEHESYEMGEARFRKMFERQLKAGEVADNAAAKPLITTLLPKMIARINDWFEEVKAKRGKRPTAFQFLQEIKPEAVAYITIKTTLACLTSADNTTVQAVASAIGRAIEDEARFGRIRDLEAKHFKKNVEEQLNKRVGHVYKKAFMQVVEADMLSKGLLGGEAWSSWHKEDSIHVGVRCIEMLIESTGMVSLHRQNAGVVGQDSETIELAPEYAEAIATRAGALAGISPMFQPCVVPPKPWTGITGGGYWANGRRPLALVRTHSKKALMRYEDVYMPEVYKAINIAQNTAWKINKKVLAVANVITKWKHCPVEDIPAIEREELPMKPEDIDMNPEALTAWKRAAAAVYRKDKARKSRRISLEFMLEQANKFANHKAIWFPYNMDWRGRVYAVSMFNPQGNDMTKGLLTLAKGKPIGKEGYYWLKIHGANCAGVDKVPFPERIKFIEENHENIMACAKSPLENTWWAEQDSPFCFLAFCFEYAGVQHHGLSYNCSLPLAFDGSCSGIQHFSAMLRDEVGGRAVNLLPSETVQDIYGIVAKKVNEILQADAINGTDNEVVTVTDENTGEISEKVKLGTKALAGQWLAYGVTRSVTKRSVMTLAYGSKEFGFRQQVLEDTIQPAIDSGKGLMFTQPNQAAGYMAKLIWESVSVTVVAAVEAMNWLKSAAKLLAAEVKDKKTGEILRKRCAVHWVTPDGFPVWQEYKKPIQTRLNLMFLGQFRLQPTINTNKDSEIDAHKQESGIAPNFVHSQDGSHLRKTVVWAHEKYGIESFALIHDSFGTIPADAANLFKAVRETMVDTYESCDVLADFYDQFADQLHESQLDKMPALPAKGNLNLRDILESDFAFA

Compound	In vitro transcription Yield [mg]
N-1-methyladenosine [Compound N-1-methyladenosine]	0.63
COC(=O)C=Cc1cn([C@@H]2O[C@H](CO)[C@@H](O)[C@H]2O)c(=O)[nH]c1=O [5 (2 carbomethoxyvinyl) uridine]	1.8

Same assay, conditions: G-CSF modified mRNA (wild-type T7), enzymatic capping, OD260

Compound	Capping reaction Yield [mg]
COC(=O)C=Cc1cn([C@@H]2O[C@H](CO)[C@@H](O)[C@H]2O)c(=O)[nH]c1=O [5 (2 carbomethoxyvinyl) uridine]	1.28

Same assay, conditions: Luciferase mRNA, wild-type T7 polymerase, OD260

Compound	In vitro transcription Yield [mg]
COC(=O)C=Cc1cn([C@@H]2O[C@H](CO)[C@@H](O)[C@H]2O)c(=O)[nH]c1=O [5 (2 carbomethoxyvinyl) uridine]	0.89

Same assay, conditions: Luciferase modified mRNA (wild-type T7), enzymatic capping, OD260

Compound	Capping reaction Yield [mg]
COC(=O)C=Cc1cn([C@@H]2O[C@H](CO)[C@@H](O)[C@H]2O)c(=O)[nH]c1=O [5 (2 carbomethoxyvinyl) uridine]	0.54

Same assay, conditions: Table 47 naturally occurring; G-CSF mRNA in vitro transcription, Pass/Fail

Compound	IVT (G-CSF)
Nc1nc(=O)n([C@@H]2O[C@H](CO)[C@@H](O)[C@H]2O)cc1C=O [5-formylcytidine (f^5C)]	Pass

Same assay, conditions: Table 47 naturally occurring; luciferase mRNA in vitro transcription, Pass/Fail

Compound	IVT (Luc)
Nc1nc(=O)n([C@@H]2O[C@H](CO)[C@@H](O)[C@H]2O)cc1C=O [5-formylcytidine (f^5C)]	Pass

Same assay, conditions: Table 48 non-naturally occurring; G-CSF mRNA in vitro transcription, Pass/Fail

Compound	IVT (G-CSF), first result
Nc1cnn([C@@H]2O[C@H](CO)[C@@H](O)[C@H]2O)c(=O)n1 [Compound 6-Aza-cytidine, 6-Aza-cytidine]	Fail

Same assay, conditions: Table 48 non-naturally occurring; luciferase mRNA in vitro transcription, Pass/Fail

Compound	IVT (Luc), first result
Nc1cnn([C@@H]2O[C@H](CO)[C@@H](O)[C@H]2O)c(=O)n1 [Compound 6-Aza-cytidine, 6-Aza-cytidine]	Fail

Tested on: HeLa cells
Assay: G-CSF expression in HeLa cells (ELISA)
Type: cell-based, human
Set-up: key to Protein (G-CSF; HeLa): the protein production of HeLa is judged by “+,” “+/−” and “−”; the protein production of HeLa is judged by “+,” “+/−” and “−”; the protein production of HeLa is judged by “+,” “+/−” and “−”
Details: Table 47 naturally occurring; *** = production seen in cell free translations
Description: (§1) To assess the activity of all our different chemical modifications in the context of a second open reading frame, we replicated experiments previously conducted using luciferase mRNA, with human G-CSF mRNA. […] The mutant T7 polymerase was obtained commercially (Durascribe® T7 Transcription kit (Cat. No. DS010925) (Epicentre®, Madison, Wis.).
(§2) The modified RNA in Tables 45 and 46 were transfected in vitro in HeLa cells or added to rabbit reticulysates (250 ng of modified mRNA) as indicated. […] In Table 45, “NT” means not tested.

Compound	Protein (G-CSF; HeLa)
Nc1nc(=O)n([C@@H]2O[C@H](CO)[C@@H](O)[C@H]2O)cc1C=O [5-formylcytidine (f^5C)]	−***

Same assay, conditions: fully modified G-CSF mRNA transfected in HeLa cells, ELISA

Compound	G-CSF protein (pg/ml) HeLa cells
CNc1ncnc2c1ncn2[C@@H]1O[C@H](CO)[C@@H](O)[C@H]1O [Compound N6-methyl-adenosine, N6-methyl-adenosine]	1,591 pg/ml
Nc1nc(=O)n([C@@H]2O[C@H](CO)[C@@H](O)[C@H]2O)cc1C=O [Compound 5-formyl-cytidine, 5-formyl-cytidine]	0 pg/mL
Cn1cnc2c(ncn2[C@@H]2O[C@H](CO)[C@@H](O)[C@H]2O)c1=N [Compound N1-methyl-adenosine, N1-methyl-adenosine]	4,773 pg/ml
Cc1cn([C@@H]2O[C@H](CO)[C@@H](O)[C@H]2O)c(=O)nc1N [Compound 5-methyl-cytidine, 5-methyl-cytidine]	646,591 pg/ml
COC(=O)C=Cc1cn([C@@H]2O[C@H](CO)[C@@H](O)[C@H]2O)c(=O)[nH]c1=O [5-(2carbomethoxyvinyl) uridine]	1,364 pg/ml
O=c1[nH]c(=O)n([C@@H]2O[C@H](CO)[C@@H](O)[C@H]2O)cc1Br [5-Bromo-uridine]	186,591 pg/ml

Tested on: rabbit reticulysates
Assay: G-CSF expression in rabbit reticulysates (ELISA)
Type: biochemical
Details: 250 ng modified G-CSF mRNA in rabbit reticulysates
Description: as §1, §2

Compound	G-CSF protein (pg/ml) Rabbit reticulysates cells
CNc1ncnc2c1ncn2[C@@H]1O[C@H](CO)[C@@H](O)[C@H]1O [Compound N6-methyl-adenosine, N6-methyl-adenosine]	0 pg/mL
Luciferase control	0 pg/mL
Nc1nc(=O)n([C@@H]2O[C@H](CO)[C@@H](O)[C@H]2O)cc1C=O [Compound 5-formyl-cytidine, 5-formyl-cytidine]	24,000 pg/ml
Cn1cnc2c(ncn2[C@@H]2O[C@H](CO)[C@@H](O)[C@H]2O)c1=N [Compound N1-methyl-adenosine, N1-methyl-adenosine]	0 pg/mL
Cc1cn([C@@H]2O[C@H](CO)[C@@H](O)[C@H]2O)c(=O)nc1N [Compound 5-methyl-cytidine, 5-methyl-cytidine]	79,375 pg/ml
COC(=O)C=Cc1cn([C@@H]2O[C@H](CO)[C@@H](O)[C@H]2O)c(=O)[nH]c1=O [5-(2carbomethoxyvinyl) uridine]	0 pg/mL
O=c1[nH]c(=O)n([C@@H]2O[C@H](CO)[C@@H](O)[C@H]2O)cc1Br [5-Bromo-uridine]	72,000 pg/ml
